Assays:
Format in all cases: cell-based, C57BL/6 mice
Vb6+ CD8 clone = test system: Vb6+ CD8 clone
Vb6-CD8 clone = test system: Vb6-CD8 clone
CD8 cells = test system: CD8 cells

| Substance | IFN-γ by ELISA (Vb6+ CD8 clone) | proliferation (3H-thymidine incorporation, stimulation index) (Vb6+ CD8 clone) | response pattern (IFN-γ and proliferation) (Vb6-CD8 clone) | TNF-α and IFN-γ expression (CD8 cells) |
| --- | --- | --- | --- | --- |
| H-VAHSVIGFIQRMFSE-OH [YopE peptide number 14] | specifically produced IFN-γ | proliferated | identical response pattern | – |
| H-SVIGFIQRM-OH [SEQ ID NO: 3] | – | – | – | stimulated TNF-α and IFN-γ expression from nearly as many CD8 cells as did the polyclonal stimulus anti-CD3 |
